Laboratory results published in patent publication US20230373985A1 (Origenis Gmbh, priority 2020, published 2023).

Columns and labels:
[1] = target: T1, wt human TYK2, catalytic site (Homo sapiens, UniProt P29597); assay: HTRF KinEASE assay, TYK2; assay type: biochemical; details: 1 μM ATP; read-out: IC50, Activity Toward TYK2
T1 construct: wt human TYK2, catalytic site; purchased SignalChem
T1 sequence (P29597 897-1176 limits assumed): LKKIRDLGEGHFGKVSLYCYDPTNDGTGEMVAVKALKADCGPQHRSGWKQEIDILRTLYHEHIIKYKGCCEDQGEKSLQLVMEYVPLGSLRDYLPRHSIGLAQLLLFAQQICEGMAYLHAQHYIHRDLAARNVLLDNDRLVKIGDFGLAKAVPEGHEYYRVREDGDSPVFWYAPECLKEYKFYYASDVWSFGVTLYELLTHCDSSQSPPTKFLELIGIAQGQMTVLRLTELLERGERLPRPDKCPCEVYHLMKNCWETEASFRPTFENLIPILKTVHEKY
In short: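 Kinase reaction run at room temperature for at least 30 min: 2 nM TYK2 with 1 μM ATP, or 1 nM JAK2 with 100 μM ATP, each with 1 μM biotin-TK substrate. Phosphorylation detected by HTRF (60 min antibody/XL665) and evaluated from emission ratios.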

[2] = target: T2, wt human LRRK2, catalytic site (Homo sapiens, UniProt Q5S007); assay: TR-FRET LanthaScreen Eu Kinase Binding Assay, LRRK2 wt; details: one range stated for wt and G2019, read-out: IC50, Activity Toward LRRK2(Wt)
T2 construct: 5 nM wt human LRRK2, catalytic site; purchased ThermoFisher
T2 sequence (Q5S007 970-2527 limits assumed): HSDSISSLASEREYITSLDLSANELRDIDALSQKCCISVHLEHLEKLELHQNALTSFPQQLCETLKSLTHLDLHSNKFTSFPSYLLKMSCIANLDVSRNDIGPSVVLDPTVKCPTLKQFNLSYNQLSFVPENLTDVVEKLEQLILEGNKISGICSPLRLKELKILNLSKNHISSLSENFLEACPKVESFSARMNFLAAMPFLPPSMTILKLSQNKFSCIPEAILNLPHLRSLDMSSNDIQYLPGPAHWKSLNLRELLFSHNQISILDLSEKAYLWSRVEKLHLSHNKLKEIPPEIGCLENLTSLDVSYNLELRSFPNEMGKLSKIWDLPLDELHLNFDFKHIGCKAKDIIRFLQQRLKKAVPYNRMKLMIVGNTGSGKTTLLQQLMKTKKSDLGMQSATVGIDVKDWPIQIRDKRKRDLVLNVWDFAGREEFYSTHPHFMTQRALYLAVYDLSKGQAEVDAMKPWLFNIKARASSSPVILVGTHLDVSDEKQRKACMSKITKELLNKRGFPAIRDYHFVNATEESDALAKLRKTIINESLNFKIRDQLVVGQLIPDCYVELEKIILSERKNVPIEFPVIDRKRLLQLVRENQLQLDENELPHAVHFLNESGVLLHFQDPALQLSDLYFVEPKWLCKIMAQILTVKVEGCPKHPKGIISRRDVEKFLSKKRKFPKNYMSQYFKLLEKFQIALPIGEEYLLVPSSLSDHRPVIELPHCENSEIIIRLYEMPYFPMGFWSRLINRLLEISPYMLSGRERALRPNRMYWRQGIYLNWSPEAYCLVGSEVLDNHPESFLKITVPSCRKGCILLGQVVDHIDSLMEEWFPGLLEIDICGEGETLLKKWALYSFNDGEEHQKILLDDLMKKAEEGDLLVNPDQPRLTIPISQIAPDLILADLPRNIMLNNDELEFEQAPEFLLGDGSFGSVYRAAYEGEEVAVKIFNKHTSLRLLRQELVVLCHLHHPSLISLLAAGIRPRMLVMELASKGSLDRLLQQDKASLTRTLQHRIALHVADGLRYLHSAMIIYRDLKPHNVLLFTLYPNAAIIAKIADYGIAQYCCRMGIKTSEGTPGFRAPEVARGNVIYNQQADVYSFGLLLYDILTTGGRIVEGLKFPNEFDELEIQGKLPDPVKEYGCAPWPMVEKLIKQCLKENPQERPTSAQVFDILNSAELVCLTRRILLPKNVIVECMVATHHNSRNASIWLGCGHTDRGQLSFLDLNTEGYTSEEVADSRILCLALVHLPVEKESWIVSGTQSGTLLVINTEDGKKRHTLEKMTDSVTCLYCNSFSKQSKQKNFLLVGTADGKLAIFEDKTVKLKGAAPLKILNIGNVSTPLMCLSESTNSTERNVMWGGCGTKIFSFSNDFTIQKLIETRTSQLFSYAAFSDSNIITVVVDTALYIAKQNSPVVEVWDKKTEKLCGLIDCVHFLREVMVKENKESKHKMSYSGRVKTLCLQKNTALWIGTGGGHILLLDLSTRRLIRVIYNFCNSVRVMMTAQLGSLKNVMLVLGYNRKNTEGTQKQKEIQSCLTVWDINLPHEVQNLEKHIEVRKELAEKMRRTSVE
Description: (§1) The basic protocol for TR-FRET LanthaScreen Eu Kinase Binding Assay inhibitor studies were performed as follows. LanthaScreen Kinase Binding Assays (ThermoFisher/USA) to evaluate inhibitors were performed by addition of 5 μL of test compound in corresponding DMSO dilutions/5 μl of kinase/antibody mixture, 5 μL of tracer into 384 well small volume plates. After incubation for 1 hour at room temperature, plates were read. Data analysis of emission ratios was according LanthaScreen Eu Kinase Binding Assay protocol.
(§2) Kinase and assay components were adjusted to final concentrations according to kit protocol. For LRRK2: 5 nM wt human LRRK2, catalytic site, or G2019S human LRRK2, catalytic site (ThermoFisher/USA), 2 nM Eu-Anti-GST Antibody, 10 nM Kinase Tracer 236 in 1× Kinase Buffer A. For NUAK1: 8 nM wt human NUAK1, full length (ThermoFisher/USA), 2 nM Eu-Anti-His Antibody, 5 nM Kinase Tracer 236 in 1× Kinase Buffer A.

[3] = target: T3, G2019S human LRRK2, catalytic site (Homo sapiens, UniProt Q5S007, G2019S); assay: TR-FRET LanthaScreen Eu Kinase Binding Assay, LRRK2 G2019S; details: LRRK2(G2019); one range stated for wt and G2019; read-out: IC50, Activity Toward LRRK2(G2019)
T3 construct: G2019S human LRRK2, catalytic site; purchased ThermoFisher
T3 sequence (Q5S007 970-2527 G2019S limits assumed): as the sequence (Q5S007 970-2527 limits assumed) above, with G1050S counted along it
Description: as §1, §2

[4] = target: T4, wt human JAK1, catalytic site (Homo sapiens, UniProt P23458); assay: HTRF KinEASE assay, JAK1; assay type: biochemical; details: 2.5 μM ATP; read-out: IC50, Activity Toward JAK1
T4 construct: wt human JAK1, catalytic site; purchased ThermoFisher
T4 sequence (P23458 875-1153 limits assumed): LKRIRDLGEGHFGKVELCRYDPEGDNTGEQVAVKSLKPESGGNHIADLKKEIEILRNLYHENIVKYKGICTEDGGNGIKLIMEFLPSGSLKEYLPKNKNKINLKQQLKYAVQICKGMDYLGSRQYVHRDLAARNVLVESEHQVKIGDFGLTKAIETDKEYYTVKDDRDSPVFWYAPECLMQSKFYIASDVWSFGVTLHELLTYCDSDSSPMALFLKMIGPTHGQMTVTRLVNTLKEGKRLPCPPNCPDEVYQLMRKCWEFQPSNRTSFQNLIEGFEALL
In short: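 Compounds in DMSO dilution were mixed with kinase, biotin-TK substrate and ATP and reacted for ≥30 min at room temperature. Detection reagents (antibody, streptavidin-XL665) were read 60 min later as HTRF, with emission ratios analysed per KinEASE protocol.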

`CCn1cc(C#N)nc1-c1ccc(Nc2cn(-c3c(Cl)cccc3Cl)nc2C(N)=O)cc1` [compound 310, 4-((4-(4-cyano-1-ethyl-1H-imidazol-2-yl)phenyl)amino)-1-(2,6-dichlorophenyl)-1H-pyrazole-3-carboxamide] gave an IC50 [1] of 10 to 100 nM, an IC50 [2] of 100 to 1000 nM and an IC50 [3] of 100 to 1000 nM. The IC50 [4] was 10 to 100 nM.

Work on `Cn1nc(C(F)(F)F)nc1-c1ccc(Nc2cn(-c3c(F)cccc3Cl)nc2C(N)=O)cc1` [compound 231, 1-(2-chloro-6-fluorophenyl)-4-((4-(1-methyl-3-(trifluoromethyl)-1H-1,2,4-triazol-5-yl)phenyl)amino)-1H-pyrazole-3-carboxamide] yielded an IC50 [1] of less than 10 nM, an IC50 [2] of 100 to 1000 nM and an IC50 [3] of 100 to 1000 nM. It also gave an IC50 [4] of less than 10 nM.

In the case of `NC(=O)c1nn(-c2c(Cl)cccc2Cl)cc1Nc1ccc(N2CCCS2(=O)=O)cc1` [compound 272, 1-(2,6-dichlorophenyl)-4-((4-(1,1-dioxidoisothiazolidin-2-yl)phenyl)amino)-1H-pyrazole-3-carboxamide], the IC50 [1] is reported as 100 to 1000 nM, the IC50 [2] is reported as 100 to 1000 nM and the IC50 [3] is reported as 100 to 1000 nM. For the same compound, the IC50 [4] was 10 to 100 nM.

In the case of `CN1CCC(N(C)C(=O)c2ccc(Nc3cn(-c4c(Cl)cccc4Cl)nc3C(N)=O)cc2)CC1` [compound 50, 1-(2,6-dichlorophenyl)-4-((4-(methyl(1-methylpiperidin-4-yl)carbamoyl)phenyl)amino)-1H-pyrazole-3-carboxamide], the IC50 [1] is reported as 10 to 100 nM, the IC50 [2] is reported as 100 to 1000 nM and the IC50 [3] is reported as 100 to 1000 nM. It also gave an IC50 [4] of 100 to 1000 nM.

For `NC(=O)c1nn(-c2c(Cl)cccc2Cl)cc1Nc1ccc(-c2nccn2CC(F)(F)F)cc1` [compound 268, 1-(2,6-dichlorophenyl)-4-((4-(1-(2,2,2-trifluoroethyl)-1H-imidazol-2-yl)phenyl)amino)-1H-pyrazole-3-carboxamide], the IC50 [1] was 10 to 100 nM, the IC50 [2] was 100 to 1000 nM and the IC50 [3] was 100 to 1000 nM. For the same compound, the IC50 [4] was 10 to 100 nM.

In the case of `CP(C)(=O)c1ccc(Nc2cn(-c3c(F)cccc3F)nc2C(N)=O)cc1` [compound 64, 1-(2,6-difluorophenyl)-4-((4-(dimethylphosphoryl)phenyl)amino)-1H-pyrazole-3-carboxamide], the IC50 [1] is reported as 100 to 1000 nM, the IC50 [2] is reported as 100 to 1000 nM and the IC50 [3] is reported as 100 to 1000 nM. The IC50 [4] was 100 to 1000 nM.

With `Cc1cnccc1-c1ccc(Nc2cn(-c3c(Cl)cccc3Cl)nc2C(N)=O)cc1` [compound 260, 1-(2,6-dichlorophenyl)-4-((4-(3-methylpyridin-4-yl)phenyl)amino)-1H-pyrazole-3-carboxamide] the IC50 [1] was 100 to 1000 nM, the IC50 [2] was 100 to 1000 nM and the IC50 [3] was 100 to 1000 nM. The IC50 [4] was 10 to 100 nM.

`N#CC1CN(C(=O)c2ccc(Nc3cn(-c4c(Cl)cccc4Cl)nc3C(N)=O)cc2)C1` [compound 276, 4-((4-(3-cyanoazetidine-1-carbonyl)phenyl)amino)-1-(2,6-dichlorophenyl)-1H-pyrazole-3-carboxamide] was tested, and the IC50 [1] was less than 10 nM, the IC50 [2] was 100 to 1000 nM and the IC50 [3] was 100 to 1000 nM. For the same compound, the IC50 [4] was 10 to 100 nM.

For `Cc1ncnn1-c1ccc(Nc2cn(-c3c(Cl)cccc3Cl)nc2C(N)=O)cc1` [compound 326, 1-(2,6-dichlorophenyl)-4-((4-(5-methyl-1H-1,2,4-triazol-1-yl)phenyl)amino)-1H-pyrazole-3-carboxamide], the IC50 [1] was 10 to 100 nM, the IC50 [2] was 100 to 1000 nM and the IC50 [3] was 100 to 1000 nM. It also gave an IC50 [4] of 10 to 100 nM.

`Cc1ccnn1-c1ccc(Nc2cn(-c3c(F)cccc3Cl)nc2C(N)=O)cc1` [compound 233, 1-(2-chloro-6-fluorophenyl)-4-((4-(5-methyl-1H-pyrazol-1-yl)phenyl)amino)-1H-pyrazole-3-carboxamide] was tested, and the IC50 [1] was 10 to 100 nM, the IC50 [2] was 100 to 1000 nM and the IC50 [3] was 100 to 1000 nM. The IC50 [4] was 10 to 100 nM.

`CCNC(=O)c1ccc(Nc2cn(-c3c(Cl)cccc3Cl)nc2C(N)=O)cc1` [compound 34, 1-(2,6-dichlorophenyl)-4-((4-(ethylcarbamoyl)phenyl)amino)-1H-pyrazole-3-carboxamide] was tested, and the IC50 [1] was 10 to 100 nM, the IC50 [2] was 100 to 1000 nM and the IC50 [3] was 100 to 1000 nM. The IC50 [4] was 10 to 100 nM.

With `NC(=O)c1nn(-c2c(F)cccc2F)cc1Nc1cccc(C(=O)N2CCOCC2)c1` [compound 18, 1-(2,6-difluorophenyl)-4-((3-(morpholine-4-carbonyl)phenyl)amino)-1H-pyrazole-3-carboxamide] the IC50 [1] was 100 to 1000 nM, the IC50 [2] was 100 to 1000 nM and the IC50 [3] was 100 to 1000 nM. It also gave an IC50 [4] of 100 to 1000 nM.

`CCc1nc(C(F)(F)F)nn1-c1ccc(Nc2cn(-c3c(F)cccc3Cl)nc2C(N)=O)cc1` [compound 283, 1-(2-chloro-6-fluorophenyl)-4-((4-(5-ethyl-3-(trifluoromethyl)-1H-1,2,4-triazol-1-yl)phenyl)amino)-1H-pyrazole-3-carboxamide] showed an IC50 [1] of less than 10 nM, an IC50 [2] of 100 to 1000 nM and an IC50 [3] of 100 to 1000 nM. The IC50 [4] was 100 to 1000 nM.

In the case of `Cc1cncnc1-c1ccc(Nc2cn(-c3c(Cl)cccc3Cl)nc2C(N)=O)cc1` [compound 51, 1-(2,6-dichlorophenyl)-4-((4-(5-methylpyrimidin-4-yl)phenyl)amino)-1H-pyrazole-3-carboxamide], the IC50 [1] is reported as 10 to 100 nM, the IC50 [2] is reported as 100 to 1000 nM and the IC50 [3] is reported as 100 to 1000 nM. It also gave an IC50 [4] of 10 to 100 nM.

`CC1(C)CN(C(=O)c2ccc(Nc3cn(-c4c(Cl)cccc4Cl)nc3C(N)=O)cc2)C1` [compound 456, 1-(2,6-dichlorophenyl)-4-((4-(3,3-dimethylazetidine-1-carbonyl)phenyl)amino)-1H-pyrazole-3-carboxamide] was tested, and the IC50 [1] was less than 10 nM, the IC50 [2] was 100 to 1000 nM and the IC50 [3] was 100 to 1000 nM. The IC50 [4] was 10 to 100 nM.

For `Cc1ccnn1-c1ccc(Nc2cn(-c3c(Cl)cccc3Cl)nc2C(N)=O)cc1` [compound 80, 1-(2,6-dichlorophenyl)-4-((4-(5-methyl-1H-pyrazol-1-yl)phenyl)amino)-1H-pyrazole-3-carboxamide], the IC50 [1] was 10 to 100 nM, the IC50 [2] was 100 to 1000 nM and the IC50 [3] was 100 to 1000 nM. The IC50 [4] was 10 to 100 nM.

In the case of `Cc1cccc2nnc(-c3ccc(Nc4cn(-c5c(Cl)cccc5Cl)nc4C(N)=O)cn3)n12` [compound 388, 1-(2,6-dichlorophenyl)-4-((6-(5-methyl-[1,2,4]triazolo[4,3-a]pyridin-3-yl)pyridin-3-yl)amino)-1H-pyrazole-3-carboxamide], the IC50 [1] is reported as 10 to 100 nM, the IC50 [2] is reported as 100 to 1000 nM and the IC50 [3] is reported as 100 to 1000 nM. For the same compound, the IC50 [4] was 10 to 100 nM.

`NC(=O)c1nn(-c2c(F)cccc2F)cc1Nc1nc2ccccc2[nH]1` [compound 11, 4-((1H-benzo[d]imidazol-2-yl)amino)-1-(2,6-difluorophenyl)-1H-pyrazole-3-carboxamide] showed an IC50 [1] of 100 to 1000 nM, an IC50 [2] of 100 to 1000 nM and an IC50 [3] of 100 to 1000 nM. It also gave an IC50 [4] of 100 to 1000 nM.

`NC(=O)c1nn(-c2c(Cl)cccc2Cl)cc1Nc1ccc(C(=O)N2CCC(F)(F)C2)cc1` [compound 247, 1-(2,6-dichlorophenyl)-4-((4-(3,3-difluoropyrrolidine-1-carbonyl)phenyl)amino)-1H-pyrazole-3-carboxamide] gave an IC50 [1] of less than 10 nM, an IC50 [2] of 100 to 1000 nM and an IC50 [3] of 100 to 1000 nM. For the same compound, the IC50 [4] was 10 to 100 nM.

`NC(=O)c1nn(-c2c(Cl)cccc2Cl)cc1Nc1ccc(-n2cc3c(n2)CCOC3)cc1` [compound 71, 1-(2,6-dichlorophenyl)-4-((4-(6,7-dihydropyrano[4,3-c]pyrazol-2(4H)-yl)phenyl)amino)-1H-pyrazole-3-carboxamide] gave an IC50 [1] of 100 to 1000 nM, an IC50 [2] of 100 to 1000 nM and an IC50 [3] of 100 to 1000 nM. The IC50 [4] was 100 to 1000 nM.

Compound `Cc1ccnc(Nc2cn(-c3c(F)cccc3F)nc2C(N)=O)c1` [compound 10, 1-(2,6-difluorophenyl)-4-((4-methylpyridin-2-yl)amino)-1H-pyrazole-3-carboxamide] has an IC50 [1] of 100 to 1000 nM, an IC50 [2] of 100 to 1000 nM and an IC50 [3] of 100 to 1000 nM.

With `COc1ccccc1-c1ccc(Nc2cn(-c3c(Cl)cccc3Cl)nc2C(N)=O)cn1` [compound 344, 1-(2,6-dichlorophenyl)-4-((6-(2-methoxyphenyl)pyridin-3-yl)amino)-1H-pyrazole-3-carboxamide] the IC50 [1] was 100 to 1000 nM, the IC50 [2] was 100 to 1000 nM and the IC50 [3] was 100 to 1000 nM.

In the case of `CC(C)(C)NC(=O)c1ccc(Nc2cn(-c3c(F)cccc3F)nc2C(N)=O)cn1` [compound 23, N-(tert-butyl)-5-((3-carbamoyl-1-(2,6-difluorophenyl)-1H-pyrazol-4-yl)amino)picolinamide], the IC50 [1] is reported as 100 to 1000 nM, the IC50 [2] is reported as 100 to 1000 nM and the IC50 [3] is reported as 100 to 1000 nM.
